Measurements as given in PMC7562719, “Discovery of a CNS penetrant small molecule SMN2 splicing modulator with improved tolerability for spinal muscular atrophy” (Scientific Reports, 2020).
Like-named read-outs stand apart in the source and are kept apart here.

Assays:
[1] = molecular target: T1, rat N type calcium channel (Rattus norvegicus, UniProt Q02294); experiment: Eurofins selectivity panel: N type calcium channel; type: binding
T1 construct: purchased Eurofins Inc

[2] = tested on: 106 representative proteins that are drug discovery targets; experiment: Eurofins selectivity panel of 106 representative proteins
[3] = general in vitro toxicity and ADME tests; details: solubility, PAMPA, MDR1, stability, CYP inhibition, CYP induction/PXR, hERG, cytotoxicity, umu, Ames, in vitro micronucleus test
[4] = pharmacokinetic study in neonatal/juvenile FVB mice, intraperitoneal; type: in vivo; details: for Kp / Cmax / MRT / Tmax: male, mouse, ip; for Kp: brain/plasma, read-out: Kp (AUC0–120h ratio)
Method: TEC-1 was intraperitoneally administered at doses of 0.2, 0.6, and 2 mg/kg (suspended in saline/0.9% NaCl solution) to male FVB mice (10 days old, 3 mice per a time point). After administration, brain samples and blood samples with heparinized capillary tubes from heart were collected. Blood samples were centrifuged to obtain the plasma fraction. Brain samples were homogenized in 20% (w/v) saline. The samples were deproteinized with acetonitrile followed by centrifugation and the supernatants were analyzed by LC/MS/MS to obtain TEC-1 concentrations of the plasma and brain.

[5] = tested on: SMN protein; experiment: SMN protein in iPSC-derived motor neurons (HTRF, western blot); type: cell-based, human; details: iPSC-derived motor neurons (GM24468), 3 days
Method: GM03813 fibroblasts and GM24468-derived MNs were seeded at 1.5 × 10^4 and 4 × 10^4 cells/well in 96-well plates and were treated with TEC-1 or SMN-C3 for 72 h at the concentration of 0.01, 0.03, 0.1, 0.3, 1, or 3 µM. After 72 h exposure of compound, GM24468 derived MNs and GM03813 fibroblasts were washed once with D-PBS (-), lysed with RIPA buffer (Wako) containing cOmplete (Sigma-Aldrich) and PhosSTOP (Sigma-Aldrich). The lysates were spun at 15,000 rpm for 15 min at 4 °C, and the supernatants were collected. The protein concentration was quantified with BCA kit (Wako). The lysates, adjusted to have the same protein amount, were mixed with NuPAGE LDS sample buffer containing DTT and heated at 95 °C for 5 min. Except for HTT detection, each sample (2 µg total protein/lane) was loaded Perfect NT Gel 7.5–15% gel (DRC, Japan) and run at 150 V for 60–70 min with Tris/glycine/SDS running buffer (BIO-RAD, USA). […] After washing with TBS-T four times, chemiluminescence signals were detected by Immunostar Zeta (Wako) and LAS-4000 (GE healthcare). […]
SMN protein concentration of the cells were quantified using an SMN HTRF kit[15] […] The fluorescence emission was read at two different wavelengths (665 nm and 620 nm or 615 nm) using an Envision plate reader (PerkinElmer, USA) excited by 320 nm. The concentration of protein in each cell lysate were measured by BCA kit (BIO-RAD) and used for normalization.

[6] = brain, 0.2 mg/kg i.p. single, juvenile FVB mice
[7] = brain, 0.6 mg/kg i.p. single, juvenile FVB mice
[8] = brain, 2 mg/kg i.p. single, juvenile FVB mice
[9] = plasma, 0.2 mg/kg i.p. single, juvenile FVB mice
[10] = plasma, 0.6 mg/kg i.p. single, juvenile FVB mice
[11] = plasma, 2 mg/kg i.p. single, juvenile FVB mice

T1 sequence (Q02294 whole entry): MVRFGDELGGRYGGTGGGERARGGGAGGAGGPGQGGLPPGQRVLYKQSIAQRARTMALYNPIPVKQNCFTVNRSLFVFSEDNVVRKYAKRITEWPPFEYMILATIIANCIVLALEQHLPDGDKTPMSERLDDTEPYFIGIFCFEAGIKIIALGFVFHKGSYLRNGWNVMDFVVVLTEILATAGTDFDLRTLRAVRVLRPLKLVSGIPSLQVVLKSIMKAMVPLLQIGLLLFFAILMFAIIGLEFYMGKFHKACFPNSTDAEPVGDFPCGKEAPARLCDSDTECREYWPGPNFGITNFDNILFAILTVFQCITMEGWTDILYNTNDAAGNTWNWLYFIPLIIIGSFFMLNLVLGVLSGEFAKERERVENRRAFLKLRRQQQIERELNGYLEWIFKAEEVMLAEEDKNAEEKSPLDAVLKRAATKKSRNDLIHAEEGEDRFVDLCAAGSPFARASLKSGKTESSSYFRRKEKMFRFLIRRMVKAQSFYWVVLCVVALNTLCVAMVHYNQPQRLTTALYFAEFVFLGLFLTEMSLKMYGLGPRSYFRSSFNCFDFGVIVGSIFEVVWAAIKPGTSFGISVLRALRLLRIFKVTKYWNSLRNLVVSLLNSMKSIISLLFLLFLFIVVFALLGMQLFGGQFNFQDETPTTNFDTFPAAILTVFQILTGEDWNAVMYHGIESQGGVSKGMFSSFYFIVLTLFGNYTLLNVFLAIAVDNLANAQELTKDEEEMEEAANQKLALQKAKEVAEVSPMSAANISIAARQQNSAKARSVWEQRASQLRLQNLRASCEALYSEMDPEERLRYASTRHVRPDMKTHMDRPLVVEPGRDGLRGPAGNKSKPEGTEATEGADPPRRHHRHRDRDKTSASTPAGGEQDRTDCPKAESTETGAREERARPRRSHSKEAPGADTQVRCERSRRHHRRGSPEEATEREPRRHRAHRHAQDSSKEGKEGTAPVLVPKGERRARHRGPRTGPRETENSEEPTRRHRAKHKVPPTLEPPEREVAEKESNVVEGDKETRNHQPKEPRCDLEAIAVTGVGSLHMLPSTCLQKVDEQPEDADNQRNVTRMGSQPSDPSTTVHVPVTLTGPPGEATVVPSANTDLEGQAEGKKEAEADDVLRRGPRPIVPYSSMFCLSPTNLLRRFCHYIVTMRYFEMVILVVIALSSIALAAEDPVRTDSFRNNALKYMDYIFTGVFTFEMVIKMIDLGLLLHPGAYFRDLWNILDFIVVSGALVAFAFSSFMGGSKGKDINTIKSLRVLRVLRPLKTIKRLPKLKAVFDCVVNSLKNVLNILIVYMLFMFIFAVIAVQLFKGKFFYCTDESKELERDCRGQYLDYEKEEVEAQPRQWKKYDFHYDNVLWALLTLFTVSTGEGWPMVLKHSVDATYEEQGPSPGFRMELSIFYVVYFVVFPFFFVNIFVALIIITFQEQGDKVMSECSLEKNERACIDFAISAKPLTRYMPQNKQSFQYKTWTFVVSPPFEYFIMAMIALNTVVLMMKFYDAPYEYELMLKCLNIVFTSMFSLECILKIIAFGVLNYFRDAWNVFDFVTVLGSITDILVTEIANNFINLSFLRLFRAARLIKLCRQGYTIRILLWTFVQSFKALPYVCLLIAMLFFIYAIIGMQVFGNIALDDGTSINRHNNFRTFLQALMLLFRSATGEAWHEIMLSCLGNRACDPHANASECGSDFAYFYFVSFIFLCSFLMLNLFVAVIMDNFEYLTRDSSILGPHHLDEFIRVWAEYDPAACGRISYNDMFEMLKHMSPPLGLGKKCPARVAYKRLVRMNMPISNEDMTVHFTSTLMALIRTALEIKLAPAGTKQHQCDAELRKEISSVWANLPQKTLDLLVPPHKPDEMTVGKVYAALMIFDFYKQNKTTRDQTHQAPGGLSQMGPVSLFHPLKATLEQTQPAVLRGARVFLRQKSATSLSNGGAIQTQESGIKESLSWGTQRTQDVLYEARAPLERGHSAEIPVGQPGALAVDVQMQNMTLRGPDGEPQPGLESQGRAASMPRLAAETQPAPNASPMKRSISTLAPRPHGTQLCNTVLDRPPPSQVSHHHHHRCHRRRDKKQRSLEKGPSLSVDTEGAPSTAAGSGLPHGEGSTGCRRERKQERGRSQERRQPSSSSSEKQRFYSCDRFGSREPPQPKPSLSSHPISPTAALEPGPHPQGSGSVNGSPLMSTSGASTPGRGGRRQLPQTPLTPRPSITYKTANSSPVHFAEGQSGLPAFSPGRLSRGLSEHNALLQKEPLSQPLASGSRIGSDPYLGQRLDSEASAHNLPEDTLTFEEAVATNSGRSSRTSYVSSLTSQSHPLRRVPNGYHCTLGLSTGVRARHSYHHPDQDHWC
T1 sequence (P54287 whole entry partner): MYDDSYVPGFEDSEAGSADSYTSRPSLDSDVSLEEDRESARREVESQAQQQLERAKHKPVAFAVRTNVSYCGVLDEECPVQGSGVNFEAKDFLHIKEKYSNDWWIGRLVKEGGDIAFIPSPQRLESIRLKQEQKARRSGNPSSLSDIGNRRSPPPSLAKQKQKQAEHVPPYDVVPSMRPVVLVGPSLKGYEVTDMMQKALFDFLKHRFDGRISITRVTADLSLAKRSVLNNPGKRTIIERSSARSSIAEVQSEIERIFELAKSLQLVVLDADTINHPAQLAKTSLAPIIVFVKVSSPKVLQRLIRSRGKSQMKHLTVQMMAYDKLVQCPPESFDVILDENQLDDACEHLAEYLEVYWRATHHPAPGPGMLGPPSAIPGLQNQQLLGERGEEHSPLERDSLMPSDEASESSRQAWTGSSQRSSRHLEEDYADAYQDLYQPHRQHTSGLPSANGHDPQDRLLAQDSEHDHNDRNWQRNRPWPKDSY
T1 sequence (P54290 25-944 partner limits assumed): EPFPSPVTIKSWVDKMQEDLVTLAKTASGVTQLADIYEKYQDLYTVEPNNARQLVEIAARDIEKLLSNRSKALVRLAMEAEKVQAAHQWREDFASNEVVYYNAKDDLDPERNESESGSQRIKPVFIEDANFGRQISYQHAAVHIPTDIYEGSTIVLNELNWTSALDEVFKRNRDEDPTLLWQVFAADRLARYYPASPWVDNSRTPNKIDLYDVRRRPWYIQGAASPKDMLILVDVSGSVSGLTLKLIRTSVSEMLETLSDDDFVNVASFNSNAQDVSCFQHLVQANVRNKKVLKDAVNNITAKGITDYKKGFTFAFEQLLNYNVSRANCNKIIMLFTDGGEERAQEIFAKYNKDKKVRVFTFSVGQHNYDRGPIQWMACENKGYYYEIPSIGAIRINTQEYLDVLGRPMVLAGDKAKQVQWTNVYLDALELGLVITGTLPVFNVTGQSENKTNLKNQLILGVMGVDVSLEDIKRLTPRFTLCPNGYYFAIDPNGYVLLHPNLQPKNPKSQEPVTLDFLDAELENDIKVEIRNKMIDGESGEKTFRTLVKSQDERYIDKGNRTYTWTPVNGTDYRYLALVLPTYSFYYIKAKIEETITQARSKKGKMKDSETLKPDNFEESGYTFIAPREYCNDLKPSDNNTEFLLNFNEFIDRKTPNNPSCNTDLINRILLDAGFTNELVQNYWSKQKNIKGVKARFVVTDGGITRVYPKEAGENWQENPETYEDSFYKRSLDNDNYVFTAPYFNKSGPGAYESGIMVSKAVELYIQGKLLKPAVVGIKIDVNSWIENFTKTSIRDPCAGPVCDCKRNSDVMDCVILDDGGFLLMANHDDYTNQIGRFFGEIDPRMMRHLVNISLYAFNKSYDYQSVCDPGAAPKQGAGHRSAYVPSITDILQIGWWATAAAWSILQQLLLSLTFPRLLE
T1 sequence (P54290 945-1091 partner limits assumed): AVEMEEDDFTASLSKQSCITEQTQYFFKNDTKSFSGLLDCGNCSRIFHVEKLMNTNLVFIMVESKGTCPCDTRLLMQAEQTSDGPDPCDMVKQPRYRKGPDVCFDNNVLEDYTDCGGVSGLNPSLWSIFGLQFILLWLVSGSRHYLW

## Cc1cn2nc(-c3nc4ccc(N5CCN(C)CC5)cc4c(=O)[nH]3)cc2c(C)n1 [TEC-1, 2-(4,6-dimethylpyrazolo[1,5-a]pyrazin-2-yl)-6-(4-methylpiperazin-1-yl)quinazolin-4(3H)-one]
[1]
  IC50: 8.8 µM
[2]
  effect on biological activity of 106 representative proteins: weakly affected the biological activity of only two targets
[3]
  general in vitro toxicity and ADME profile: good profiles
[4]; [6]
  AUC0–24 h: 69.7 ng･h/g
  AUC0–120 h: 87.7 ng･h/g
  Cmax: 10.5 ng/g
  MRT: 11.2 h
  Tmax: 0.5 h
[4]; [7]
  AUC0–24 h: 600.3 ng･h/g
  AUC0–120 h: 716.7 ng･h/g
  Cmax: 63.2 ng/g
  MRT: 11.8 h
  Tmax: 1 h
[4]; [8]
  AUC0–24 h: 3547.9 ng･h/g
  AUC0–120 h: 8261.5 ng･h/g
  Cmax: 219 ng/g
  MRT: 35.8 h
  Tmax: 1 h
[4]; 0.2 mg/kg i.p. single, juvenile FVB mice
  Kp: 5.8
[4]; 0.6 mg/kg i.p. single, juvenile FVB mice
  Kp: 4.8
[4]; 2 mg/kg i.p. single, juvenile FVB mice
  Kp: 4.5
[4]; plasma, 0.2 mg/kg i.p. single, juvenile (10-day-old) FVB mice, n = 3, pool
  Cmax: 2.2 ng/mL
[4]; [9]
  MRT: 7.21 h
  Tmax: 0.5 h
  AUC0–24 h: 15.2 ng･h/mL
  AUC0–120 h: 15.2 ng･h/mL
[4]; [10]
  Cmax: 11.3 ng/mL
  MRT: 10.7 h
  Tmax: 0.5 h
  AUC0–24 h: 129.9 ng･h/mL
  AUC0–120 h: 149.1 ng･h/mL
[4]; [11]
  Cmax: 42 ng/mL
  MRT: 40.4 h
  Tmax: 3 h
  AUC0–24 h: 718.6 ng･h/mL
  AUC0–120 h: 1829.8 ng･h/mL
[5]
  concentration that increased SMA protein: 100 nM
